Test results from article PMC12385910, “The Functional Characterization of an AA10 Lytic Polysaccharide Monooxygenase from Saccharophagus degradans 2-40^T for Enhanced Chitin Biodegradation” (Foods, 2025).

Target: T1, SdLPMO10A (Saccharophagus degradans, UniProt Q21N34)
T1 construct: gene cbpA; AA10 catalytic domain plus CBM2; native signal peptide (24 residues) replaced by pelB, pET-26b(+), E. coli BL21(DE3) periplasm, Ni-NTA purified; N-terminal His25; Cu2+-saturated
Assay: MALDI-TOF MS of oxidized chitin oligosaccharides
Format: biochemical
Settings: electron donor, 1 mM; 10 µM Cu2+-saturated enzyme; alpha-chitin; 20 mM Tris-HCl pH 8.0, 30 °C, 48 h

T1 sequence (Q21N34 entry or part of it): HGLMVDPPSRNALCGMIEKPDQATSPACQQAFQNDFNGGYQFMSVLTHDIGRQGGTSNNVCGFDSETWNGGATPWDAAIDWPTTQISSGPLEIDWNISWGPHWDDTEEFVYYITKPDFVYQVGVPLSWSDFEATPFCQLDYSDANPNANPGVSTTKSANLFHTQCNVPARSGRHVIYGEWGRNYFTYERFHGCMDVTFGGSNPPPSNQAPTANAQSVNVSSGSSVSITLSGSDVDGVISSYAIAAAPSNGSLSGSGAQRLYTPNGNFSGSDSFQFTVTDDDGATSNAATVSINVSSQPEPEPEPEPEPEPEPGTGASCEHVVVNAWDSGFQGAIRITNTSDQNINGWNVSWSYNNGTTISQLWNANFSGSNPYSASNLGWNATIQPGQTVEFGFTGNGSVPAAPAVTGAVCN

O=C1O[C@H]([C@@H](O)CO)C(O)=C1O [ascorbic acid]
MALDI-TOF MS of oxidized chitin oligosaccharides: lacking SdLPMO10A or ascorbic acid, no discernible quantity of oxidized chitin oligosaccharides was generated
